Results on seven compounds are retold here after article PMC7663263 (Molecules, 2020).

Where two headings read alike, the source gives them in different places.

For orientation: IC50 means the midpoint of a concentration-inhibition curve. One may read the Ki as a dissociation constant, usually derived from enzyme kinetics or from competition with a known ligand.

For data set [1], the target named is T1, S. mansoni TGR (Schistosoma mansoni, UniProt Q962Y6).
T1 construct: made in house; host or cells: E. coli
T1 sequence (Q962Y6 1-598): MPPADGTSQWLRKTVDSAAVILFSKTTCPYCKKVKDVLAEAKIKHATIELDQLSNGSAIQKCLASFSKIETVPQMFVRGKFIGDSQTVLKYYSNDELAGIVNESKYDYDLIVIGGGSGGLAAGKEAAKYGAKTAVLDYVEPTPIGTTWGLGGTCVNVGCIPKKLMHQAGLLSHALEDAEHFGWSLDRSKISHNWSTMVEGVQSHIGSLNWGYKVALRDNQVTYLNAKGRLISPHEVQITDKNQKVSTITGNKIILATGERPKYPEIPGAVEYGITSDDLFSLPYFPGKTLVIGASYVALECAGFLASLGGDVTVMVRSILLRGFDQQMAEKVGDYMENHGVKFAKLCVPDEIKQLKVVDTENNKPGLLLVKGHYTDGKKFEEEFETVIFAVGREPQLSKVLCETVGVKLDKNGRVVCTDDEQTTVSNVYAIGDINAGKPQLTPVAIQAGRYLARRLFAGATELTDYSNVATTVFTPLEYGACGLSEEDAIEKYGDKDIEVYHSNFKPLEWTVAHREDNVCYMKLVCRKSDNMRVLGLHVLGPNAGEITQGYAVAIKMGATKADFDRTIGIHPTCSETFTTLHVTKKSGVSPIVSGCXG
Also on record: method as in PMID 17579510. The conditions noted are these: 20 nM enzyme, 100 µM GSSG; after 15 min preincubation; read-out: IC50 S. mansoni TGR, substrate GSSG; cited from earlier work.

Data set [2] addresses human thioredoxin reductase (TrxR). Also on record: method as in PMID 9685351. The settings on record: cited from earlier work.
Data set [3] concerns the target T1, S. mansoni TGR. Also on record: method as in PMID 17579510. The conditions noted are these: 20 nM enzyme, 3 mM DTNB; after 15 min preincubation; read-out: IC50 S. mansoni TGR, substrate DTNB; cited from earlier work.
For the next data set, the system named is Human GR. The settings on record: read-out: IC50 Human GR, substrate GSSG, cited from earlier work.
The test system of data set [4] is Human TrxR. The conditions noted are these: 3 mM DTNB, read-out: IC50 Human TrxR, substrate DTNB, cited from earlier work.
The target in data set [5] is T1, S. mansoni TGR. Also on record: method as in PMID 17579510. The settings on record: 20 nM enzyme, 8 mM substrate; after 15 min preincubation; read-out: IC50 S. mansoni TGR, substrate HED + GSSG; cited from earlier work.
The test system of another data set is T. cruzi Tulahuen CL2. Nature of the data set: Anti-Chagas activity, T. cruzi on MRC-5 cells. The data set is classed as cell-based. The conditions noted are these: Trypanosoma cruzi, TULAHUEN, MRC5, 168 h; amastigotes, MRC-5 host cells, 7 days; read-out: Trypanosoma cruzi IC50 (µM) ± SD. The protocol:
Anti-Chagas activity: T. cruzi Tulahuen CL2 (benznidazole-sensitive, LacZ-reporter strain) was maintained on MRC-5 cells in minimal essential medium (MEM) supplemented with […], 16.5 mM sodium hydrogen carbonate and 5% FCS. In the assay, 4 × 10^3 MRC-5 cells and 4 × 10^4 parasites were added to each well. After incubation at 37 °C for 7 days, parasite growth was assessed by adding the substrate chlorophenol red -D-galactopyranoside. The color reaction was read at 540 nm after 4 h and absorbance values were expressed as a percentage of the blank controls. Benznidazole was included as reference drug.

The subject of data set [6] is Human TrxR. The settings on record: 20 µM substrate, after 10 min enzyme-NADPH-gold complex preincubation, read-out: IC50 Human TrxR, substrate hTrxC72S, cited from earlier work.
Data set [7] has as its system Leishmania donovani LV9 axenic amastigotes. Nature of the data set: L. donovani LV9 axenic amastigotes (resazurin). The data set is classed as cell-based. The conditions noted are these: Leishmania donovani; read-out: Leishmania donovani LV9 Axenic Amastigotes IC50 (µM) ± SD. As for the experimental part: (§1) In vitro anti-leishmanial evaluation was perfomed on both axenic and intramacrophage L. donovani amastigotes as previously described. […] Briefly, compounds were distributed in 96-well plates using 2-fold dilutions in 100 µL PYG medium. A. castellanii trophozoites were added to each well at 5 × 10^4 amoeba/mL in 200 µL final volume. L. donovani axenic amastigotes were added to each well at 10^6 parasites/mL in 200 µL final volume. After 72 h incubation at 27 °C, 20 µL of 1 mM resazurin was added to each well and further incubated at 27 °C for 8 h for A. castellanii and for 24 h for L. donovani axenic amastigotes. In living cells, resazurin is reduced in resorufin. This conversion is monitored by measuring the absorbance at specific wavelengths of resorufin (570 nm) and resazurin (600 nm) using a microplate reader (Labsystems Multiskan MS, McLean, VA, USA). In this assay, the activity was expressed in IC50. Miltefosine and pentamidine were used as reference drugs. All experiments were performed in three independent experiments.

Data set [8] relates to L. infantum MHOM/MA (BE)/67 amastigotes. As to the kind of experiment: Anti-leishmanial activity, L. infantum amastigotes in primary peritoneal mouse macrophages. The conditions noted are these: Leishmania infantum, Macrophage, 120 h; amastigotes in primary peritoneal mouse macrophages, 5 days; read-out: Leishmania infantum IC50 (µM) ± SD. The data set is classed as cell-based, Leishmania infantum. As for the experimental part: Anti-leishmanial activity: L. infantum MHOM/MA (BE)/67 amastigotes were collected from the spleen of an infected donor hamster and used to infect primary peritoneal mouse macrophages grown in a 96-well plate. After 2 days outgrowth, 5 × 10^5 amastigotes were added to each well and incubated for 2 h at 37 °C. The compounds were subsequently added and the plates were further incubated for 5 days at 37 °C and 5% CO2. Parasite burdens (mean number of amastigotes/macrophage) were microscopically assessed on 500 cells after Giemsa staining and expressed as a percentage of the blank controls. Miltefosine was included as reference drug. The use of laboratory rodents was carried out in accordance to all mandatory guidelines (EU directives, including the Revised Directive 2010/63/EU on the Protection of Animals used for Scientific Purposes that came into force on 1 January 2013, and the declaration of Helsinki in its latest version) and was approved by the Ethical Committee of the University of Antwerp, Belgium [UA-ECD 2011–77 (17-02-2012 and UA-ECD 2015-90].

Data set [9] has as its system Leishmania donovani LV9 intramacrophage amastigotes. As to the kind of experiment: L. donovani LV9 intramacrophage amastigotes. The data set is classed as cell-based. The settings on record: Leishmania donovani; read-out: Leishmania Donovani LV9 Intramacrophage Amastigotes IC50 (µm) ± SD. As for the experimental part:
as §1

Data set [10] is described as follows: in vitro. The settings on record: mouse. As for the experimental part: (§2) Toxicity in human fetal lung fibroblast (MRC-5) cell line and primary mouse macrophages (PMM) was assessed using a previously reported assay in 96-well microtiter plates. Tamoxifen and miltefosine were included as reference drugs (Table 10).
(§3) For MRC5SV2 or PMM cells, the assays were performed in 96-well microtiter plates, each well containing 10 µL of compound dilution and 190 µL of cell inoculum (3 × 10^4 cells/mL) as reported. Cell growth was compared to untreated controls (100% growth) and assay-media controls (0% growth). After three-day incubation, cell viability was assessed fluorometrically by adding resazurin [50 µL/well of a stock solution in phosphate buffer (50 µg/mL)], incubating for 4 h and measuring fluorescence (ex 550 nm, em 590 nm). The results are expressed as percentage reduction in cell growth as compared to untreated control wells. […] Tamoxifen was included as the reference drug.

Data set [11] relates to T. b. brucei Squib-427 strain. Nature of the data set: Anti-trypanosomal activity, T. b. brucei trypomastigotes (resazurin). The data set is classed as cell-based, Trypanosoma brucei brucei. The conditions noted are these: Trypanosoma brucei, 72 h. The protocol:
(§4) Anti-trypanosomal activity: T. b. brucei Squib-427 strain (suramin-sensitive) and T. b. gambiense (ITMAP/1893) were cultured at 37 °C and 5% CO2 in HMI-9 medium supplemented with 10% FCS [90]. About 10^4 trypomastigotes/well were added to each well and parasite growth was assessed after 72 h at 37 °C by adding resazurin and reading at ex 550 nm, em 590 nm. Suramin was included as reference drug for T. b. brucei and pentamidine for T. b. gambiense.
In general terms: Resazurin is reduced to fluorescent resorufin, in cell work by metabolically active cells.

For data set [12], the system named is Acanthamoeba castellanii ATCC 30010. As to the kind of experiment: Anti-acanthamoebal activity on A. castellanii trophozoites (resazurin). The data set is classed as cell-based. The conditions noted are these: ATCC30010, 72 h, read-out: Acanthamoeba castellanii ATCC 30010 IC50 (µM) ± SD. The protocol: as §1
Data set [13] can be described thus: Cytotoxicity on RAW 264.7 macrophages. The data set is classed as cell-based, murine. The conditions noted are these: mouse, RAW 264.7 macrophages; 48 h incubation; read-out: Cytotoxicity on RAW 264.7 Macrophages CC50 (µM) ± SD. As for the experimental part:
Cytotoxicity was evaluated on RAW 264.7 macrophages that were maintained at 37 °C with 5% CO2 in Dulbecco’s Modified Eagle’s Medium (DMEM, Invitrogen, Toulouse, France) supplemented with 100 U/mL penicillin-streptomycin (Invitrogen) and 10% heat-inactivated fetal bovine serum, as previously described. Briefly, cells were plated in 96-well microplates at a density of 2 × 10^4 cells per well. After incubation for 24 h at 37 °C in 5% CO2, the medium was removed from each well and 100 µL of medium containing 2-fold serial dilutions of compounds was added to each well. After 48 h incubation at 37 °C in 5% CO2, 10 µL of 450 µM resazurin was added to each well and further incubated in the dark for 4 h. Cell viability was determined as described above. The cytotoxicity of the compounds was expressed as CC50.

Data set [14] deals with T. b. gambiense (ITMAP/1893). Nature of the data set: Anti-trypanosomal activity, T. b. gambiense trypomastigotes (resazurin). The data set is classed as cell-based, Trypanosoma brucei gambiense. The settings on record: Trypanosoma brucei, GAMBIENSE, 72 h, read-out: T. b. gambiense IC50 (µM) ± SD. As for the experimental part:
as §4

Data set [15] can be described thus: in vitro. The conditions noted are these: human. As for the experimental part: as §2, §3

As to `OC[C@H]1O[C@H]([S-])[C@H](O)[C@@H](O)[C@@H]1O.[Au+]` [Aurothioglucose], the IC50 at S. mansoni TGR [1] was 3000 nM; on S. mansoni TGR [3], 70 nM; in the data set with Human GR (1.5 nM enzyme, 1 mM GSSG, steady state kinetic studies), greater than 100000 nM; in the data set on Human TrxR [4] (2 nM enzyme, steady state kinetic studies), 65 nM; on S. mansoni TGR [5], 400 nM. Moreover, in data set [2], the Ki was 4 nM.
For the compound `O=C(Cn1ccnc1[N+](=O)[O-])NCc1ccccc1` [Benznidazole, reference compound], the IC50 in the data set with T. cruzi Tulahuen CL2 is 2.89 ± 0.94 µM.
`[Cl][Au][PH]1(c2ccccc2)C(c2ccccn2)=CC=C1c1ccccn1` [GoPI, {1-phenyl-2,5-di(2-pyridyl)phosphole}AuCl]: the half-inhibitory concentration (IC50) was 6.9 nM in the data set with Human TrxR [6] (24 nM enzyme); 7 nM with Human TrxR [6] (30 nM enzyme); 2 nM with Human GR (1.4-[…] enzyme, 100 µM GSSG, after 10 min preincubation); 1 nM in the data set with Human GR ([…] enzyme, 100 µM GSSG, after 10 min preincubation); 1 nM with Human TrxR [4] (3.7 nM enzyme, after 10 min preincubation); 0.8 nM with Human TrxR [4] ([…] enzyme, after 10 min preincubation).
Take `CCCCCCCCCCCCCCCCOP(=O)([O-])OCC[N+](C)(C)C` [Miltefosine]: the IC50 in data set [7] was found to be 1.28 ± 0.12 µM; in [8], 11.3 ± 2.88 µM; in data set [9], 4.49 ± 1.08 µM; in data set [11], 11.3 µM; in data set [12], 9.21 ± 2.04 µM. The compound further displayed a CC50 at 3 days in “in vitro [10]” of 20 µM. In addition, the CC50 at 48 h in data set [13] is greater than 25 µM.
For `N=C(N)c1ccc(OCCCCCOc2ccc(C(=N)N)cc2)cc1` [Pentamidine], the IC50 in [14] was found to be 0.0011 ± 0.0001 µM; in data set [12], 1.39 ± 0.37 µM. In [13], the CC50 at 48 h is greater than 25 µM.
In data set [11], `Cc1ccc(C(=O)Nc2ccc(S(=O)(=O)O)c3cc(S(=O)(=O)O)cc(S(=O)(=O)O)c23)cc1NC(=O)c1cccc(NC(=O)Nc2cccc(C(=O)Nc3cc(C(=O)Nc4ccc(S(=O)(=O)O)c5cc(S(=O)(=O)O)cc(S(=O)(=O)O)c45)ccc3C)c2)c1` [Suramin] came in with an IC50 of 0.03 µM.
In the data set “in vitro [15]”, `CC/C(=C(\c1ccccc1)c1ccc(OCCN(C)C)cc1)c1ccccc1` [Tamoxifen] showed a CC50 at 3 days of 10.6 µM.
